{
  "source": "patent US12194036B2",
  "about": "(priority 2022, dated 2025)",
  "key": {"[1]": {"assay": "Pharmacokinetics after administration of the subject combination", "conditions": "for AUC0-12 relative to that of bupropion / Cmax relative to peak level of bupropion: metabolite vs bupropion, after the subject combination"}, "plasma protein": {"tested_on": "plasma protein", "assay": "Plasma protein binding", "assay_type": "in vitro ADME", "conditions": "metabolite vs bupropion"}, "[2]": {"assay": "Food effect on pharmacokinetics of the subject combination", "conditions": "subject combination administered with food"}, "[3]": {"assay": "Effect of CYP2D6 poor metabolizer status on pharmacokinetics of the tablet (Group 3)", "conditions": "compared to patients who are not CYP2D6 poor metabolizers"}},
  "data": [
    {"compound": "C[C@H](NC(C)(C)C)[C@@H](O)c1cccc(Cl)c1", "note": "[threohydroxybupropion]", "values": [
      {"measurement": "AUC0-12 relative to that of bupropion", "setting": "[1]", "result": "about 7 times"},
      {"measurement": "Cmax relative to peak level of bupropion", "setting": "[1]", "result": "about 5 times"},
      {"measurement": "extent of protein binding compared with bupropion", "setting": "plasma protein", "result": "about half that seen with bupropion"}
    ]},
    {"compound": "CC(NC(C)(C)C)C(O)c1cccc(Cl)c1", "note": "(centres unmarked) [erythrohydroxybupropion]", "values": [
      {"measurement": "AUC0-12 relative to that of bupropion", "setting": "[1]", "result": "about 1.2 times"},
      {"measurement": "Cmax relative to peak level of bupropion", "setting": "[1]", "result": "approximately equal to"}
    ]},
    {"compound": "CC(NC(C)(C)C)C(=O)c1cccc(Cl)c1", "note": "(racemic) [bupropion]", "values": [
      {"measurement": "mean elimination half-life", "setting": "[1]; human, plasma, oral", "result": 15, "unit": "h"}
    ]},
    {"compound": "C[C@H]1NC(C)(C)CO[C@]1(O)c1cccc(Cl)c1", "note": "[hydroxybupropion]", "values": [
      {"measurement": "AUC0-12 relative to that of bupropion", "setting": "[1]", "result": "about 19 times"},
      {"measurement": "Cmax relative to peak level of bupropion", "setting": "[1]", "result": "approximately 14 times"}
    ]},
    {"compound": "COc1ccc2c(c1)[C@]13CCCC[C@@H]1[C@H](C2)N(C)CC3", "note": "[dextromethorphan]", "values": [
      {"measurement": "AUC0-12 decrease with food", "setting": "[2]", "result": 14, "unit": "%"},
      {"measurement": "plasma concentrations in CYP2D6 poor metabolizers", "setting": "[3]", "result": "increases plasma concentrations"},
      {"measurement": "increase of mean elimination half-life", "setting": "[1]; 8 days of subject combination in extensive metabolizers, compared to dextromethorphan given without bupropion", "result": "approximately 3 fold"},
      {"measurement": "pharmacokinetics at steady state (linearity)", "setting": "[1]; co-administered with bupropion", "result": "nonlinear pharmacokinetics"},
      {"measurement": "changes in AUC and Cmax at steady state with dose", "setting": "[1]; varying doses of bupropion (75 to 150 mg), co-administered with bupropion", "result": "less than dose-proportional changes"},
      {"measurement": "changes in AUC and Cmax at steady state with dose", "setting": "[1]; varying doses of dextromethorphan (30 to 60 mg), co-administered with bupropion", "result": "greater than dose-proportional changes"}
    ]}
  ]
}
